This is an account of results in patent publication US4038407A, “Benzisothiazoline-1,1-dioxide derivatives, compositions and methods” (Boehringer Ingelheim GmbH, priority 1975, dated 1977).

Counter-ions that a name gives are not always drawn.

Series [1] deals with isolated, spontaneously beating auricles of guinea pigs. As to the kind of experiment: Effect on heart rate in the isolated auricle of the guinea pig. It is filed as cell-based. Conditions: Cavia porcellus; 10^-5 g/ml in organ bath, tyrode solution, 30° C., average of 5 auricles; read-out: Change in heart rate in %. The procedure:
2. Effect on heart rate in the isolated auricle of the guinea pig:
The effect on isolated, spontaneously beating auricles of guinea pigs of male and female sex having a body weight between 300 and 400 gm were investigated in an organ bath filled with tyrode solution. The nutritive solution was infused with carbogen (95% of O2 and 5% of CO2) and maintained at 30° C. The contractions were registered isometrically with a Statham-Force-transducer on a Grass-polygraph. The test compound was added to the organ bath so that the final concentration was 10^-^5 g/ml in each case. 5 auricles were used for each solution.
The following table gives the percentage decrease in the heart rate from an average of 5 auricles at a test compound concentration of 10^-^5 g/ml).

The next series can be described thus: Acute toxicity in mice. Conditions: mouse, in vivo, observation time 14 days. As for the experimental part:
The acute toxicity of the compounds in question was determined in mice (observation time: 14 days) after oral or intravenous application. The LD50 was calculated from the percentage of animals which died after different doses within the observation time (see J. Pharmacol. exp. Therap. 96, 99 (1949)): […]

For series [2], the system named is heart rate of guinea pigs under urethane anesthesia. As to the kind of experiment: Activity on heart frequency of anesthetized guinea pigs. It is filed as in vivo, guinea pig. Conditions: ECG. The procedure:
1. Activity on heart frequency of anesthetized guinea pigs:
The heart rate of guinea pigs under urethane anesthesia was registered by an electrocardiogram. The test compound was administered intravenously at increasing dosage increments between 0.5 and 20 mg/kg.

In the case of `COc1ccc(CCN(C)CCCN2Cc3cc(OC)c(OC)cc3C2=O)cc1OC` [A, 5,6-Dimethoxy-2N-(3-[α-(3,4-dimethoxy)-phenylethyl-methylamino]-propyl)-phthalimidine hydrochloride], the inhibition at 10 µg/mL in series [1] came out at 52%. Also, the LD50 at 336 h in the series “Acute toxicity in mice” (iv) was 98 mg/kg; in “Acute toxicity in mice” (po) it was 1570 mg/kg. In addition, the “Percentage change in heart rate” value is -23.5% in series [2] (0.5 mg/kg i.v.); -36.1% in series [2] (1.0 mg/kg i.v.); -47.2% in series [2] (2.0 mg/kg i.v.); -51.6% in series [2] (5.0 mg/kg i.v.); -59.1% in series [2] (10.0 mg/kg i.v.); -67.2% in series [2] (20.0 mg/kg i.v.).
For `COc1ccc(CCN(C)CCCN2Cc3cc(OC)c(OC)cc3S2(=O)=O)cc1OC` [B, 5,6-Dimethoxy-2-(3-[α-(3,4-dimethoxy)-phenylethyl-methylamino]-propyl)-1,2-benzisothiazoline-1,1-dioxide hydrochloride], in series [1], the inhibition at 10 µg/mL is 60%. Besides, the LD50 at 336 h in the series “Acute toxicity in mice” (iv) was 100 mg/kg. For the same compound, the “Percentage change in heart rate” value is reported as -9.8% in series [2] (0.5 mg/kg i.v.); -20.0% in series [2] (1.0 mg/kg i.v.); -27.4% in series [2] (2.0 mg/kg i.v.); -37.6% in series [2] (5.0 mg/kg i.v.); -46.9% in series [2] (10.0 mg/kg i.v.); -53.9% in series [2] (20.0 mg/kg i.v.).
As for `CN(CCCN1Cc2cc3c(cc2C1=O)OCCO3)CCc1ccc2c(c1)OCO2` [E, 5,6-Ethylenedioxy-2N-(3-[α-(3,4-methylenedioxy)-phenylethyl-methylamino]-propyl)-phthalimidine hydrochloride], the inhibition at 10 µg/mL in series [1] is 48%.
On the same count and under the same terms, then `COc1cc2c(cc1OC)C(=O)N(CCCN(C)CCc1ccc3c(c1)OCO3)C2` [D, 5,6-Dimethoxy-2N-(3-[α-(3,4-methylenedioxy)-phenylethylmethylamino]-propyl)-phthalimidine hydrochloride], with 51%.
